This test deals with T1, HCV NS3/4A protease complex, H77 strain (1a genotype) (Hepatitis C virus genotype 1a, UniProt P27958, C1454S/C1711G).
T1 construct: DNA encoding the recombinant HCV NS3/4A protease complex (amino acids 1027 to 1711) for these strains; inferred from pET21b vector and Ni-NTA purification; made in house; host or cells: Escherichia coli BL21 (DE3), pET21b
Nature of the test: FRET peptide assay to monitor HCV NS3/4A proteolytic activity (H77 strain). In kind it is biochemical. From the text: HCV NS3 protease complexes, derived from the BMS strain, H77 strain or J4L6S strain, were generated, as described below. These purified recombinant proteins were generated for use in a homogeneous assay (see below) to provide an indication of how effective compounds of the present disclosure would be in inhibiting HCV NS3 proteolytic activity.
Serum from an HCV-infected patient was obtained from Dr. T. Wright, San Francisco Hospital. An engineered full-length cDNA (compliment deoxyribonucleic acid) template of the HCV genome (BMS strain) was constructed from DNA fragments obtained by reverse transcription-PCR (RT-PCR) of serum RNA (ribonucleic acid) and using primers selected on the basis of homology between other genotype 1a strains. From the determination of the entire genome sequence, a genotype 1a was assigned to the HCV isolate according to the classification of Simmonds et al. (See P Simmonds, K A Rose, S Graham, S W Chan, F McOmish, B C Dow, E A Follett, P L Yap and H Marsdeni, J. Clin. Microbiol., 31(6):1493-1503 (1993)). […]

The source of these data is patent publication US20090285774A1, “Hepatitis C Virus Inhibitors” (Bristol-Myers Squibb Company, priority 2008, published 2009).

pIC50: −log10 of the molar value.

T1 sequence (P27958 1027-1711 C1454S/C1711G, one chain of several): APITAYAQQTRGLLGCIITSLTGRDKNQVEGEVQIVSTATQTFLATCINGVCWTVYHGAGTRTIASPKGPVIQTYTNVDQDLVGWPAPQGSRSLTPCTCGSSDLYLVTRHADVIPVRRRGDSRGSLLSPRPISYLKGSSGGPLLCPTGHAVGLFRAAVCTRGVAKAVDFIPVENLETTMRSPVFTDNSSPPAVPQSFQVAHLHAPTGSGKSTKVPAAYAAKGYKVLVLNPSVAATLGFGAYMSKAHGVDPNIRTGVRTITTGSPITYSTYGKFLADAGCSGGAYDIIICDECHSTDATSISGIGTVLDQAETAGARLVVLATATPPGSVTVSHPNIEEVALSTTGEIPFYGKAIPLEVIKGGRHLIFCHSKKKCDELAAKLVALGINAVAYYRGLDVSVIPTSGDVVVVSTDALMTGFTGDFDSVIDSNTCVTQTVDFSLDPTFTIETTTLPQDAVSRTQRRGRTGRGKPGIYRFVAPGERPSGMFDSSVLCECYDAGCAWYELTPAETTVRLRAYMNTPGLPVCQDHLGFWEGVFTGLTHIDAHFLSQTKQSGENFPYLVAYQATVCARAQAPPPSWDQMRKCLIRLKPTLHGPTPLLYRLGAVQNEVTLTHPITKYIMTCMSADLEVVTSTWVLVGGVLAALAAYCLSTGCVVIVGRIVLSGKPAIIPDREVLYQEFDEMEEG

In turn, `C=C[C@@H]1C[C@]1(NC(=O)[C@@H]1C[C@@H](OC(=O)N2Cc3cccc(F)c3C2)CN1C(=O)C(Nc1cc(C)cc(C)n1)C(C)C)C(=O)NS(=O)(=O)C1CC1` (single isomer, unassigned) [Compound 2A] had a pIC50 of 8.85.

For orientation: pIC50 means the IC50 on a negative log10 scale, so that one unit is a factor of ten. Low readings indicate a high IC50, high ones a low IC50.
